Molecules are shown by their SMILES. Read-outs that look alike come from different tables or passages of the source.

Consider 20 compounds from patent US10434101B2, “Heterocyclic compounds and uses thereof” (Celgene CAR LLC, priority 2010, dated 2019).

The target in test [1] is EGFR double mutation L858R/T790M (H1975 cells) (Homo sapiens (Human), UniProt P00533, L858R/T790M). As to the kind of experiment: Phospho-EGFR signaling (immunoblotting, 1 hr) in H1975 cells. The format is cell-based. As to conditions: signaling EC50 WT (A431) / H1975. The method, then: (§1) A431 human epidermoid carcinoma, H1975 human NSCLC and HCC827 human NSCLC adenocarcinoma cells were obtained from the American Type Culture Center (Manassas, Va.). A431 cells were grown in DMEM (Invitrogen, Carlsbad, Calif.) supplemented with 10% FBS (HyClone, South Logan, Utah) and 1% Penicillin-Streptomycin (P/S, Lonza, Walkersville, Md.).
All primary antibodies were obtained from Cell Signaling (Danvers, Mass.) and used at 1:1000. Secondary antibodies were used at 1:10,000. Goat anti-mouse IgG IRDye 800CW antibody was obtained from LiCor Biosciences (Lincoln, Nebr.) and goat anti-rabbit IgG Alexa Fluor 680 was obtained from Invitrogen.
Cells were grown in 12-well plates (Corning, Coring, N.Y.) to 90% confluence and then incubated in low-serum (0.1% FBS) media for 16-18 hr. […] A431 cells were then stimulated with 50 ng/ml EGF (Peprotech, Rocky Hill, N.J.) for 15 min. After treatment, cell monolayers were washed with cold PBS (Invitrogen) and immediately lysed by scrapping into 60 uL cold Cell Extraction Buffer (Invitrogen) supplemented with Complete Protease inhibitors (Roche, Indianapolis, Ind.) and PhosphoSTOP (Roche) phosphatase inhibitors.
Phospho-protein signals were quantitated using Odyssey Infrared Imaging (Li-Cor Biosciences).
To assess phosphor-EGFR signaling, blots were probed with rabbit anti-Phospho-EGFR (Y1068) and mouse total anti-EGFR antibodies. Phospho-EGFR signal was normalized to total EGFR expression for each sample. […] Normalized data was fitted using a sigmoidal curve analysis program (Graph Pad Prism version 5) with variable Hill slope to determine the EC50 values.
For orientation: Immunoblotting shows a protein as a band on a membrane.

The subject of test [2] is H1975 cells (EGFR L858R/T790M). As to the kind of experiment: Cell proliferation (CellTiter Glo, 72 hr) in H1975 cells. In kind it is cell-based, human. As to conditions: Homo sapiens, read-out: H1975 GI50. The protocol:
as §1
(§2) Cells were plated in Growth Media supplemented with 5% FBS and 1% P/S at a density of 3,000 cells per well in 96 well tissue culture plates (Corning). […] Growth inhibition (GI50) values were determined by Graph Pad Prism.

In the next test the test system is A431 cells (WT EGFR). As to the kind of experiment: Cell proliferation (CellTiter Glo, 72 hr) in A431 cells. The following applies: Homo sapiens. In kind it is cell-based. The method, then:
as §1, §2
For orientation: In ATP-based viability assays light output follows the ATP content of the culture.

Test [3] concerns HCC827 cells (EGFR delE746-A750). As to the kind of experiment: Cell proliferation (CellTiter Glo, 72 hr) in HCC827 cells. The format is cell-based, human. As to conditions: Homo sapiens, read-out: HCC827 GI50. The protocol: as §1, §2
Where [4] appears, read: A-431, A431 cells, 72 hr, read-out: WT EGFR GI50.

The GI50 is the concentration that inhibits growth by half. With `C=CC(=O)Nc1cccc(Nc2nc(Nc3ccc(N4CCN(S(C)(=O)=O)CC4)cc3OC)ncc2Cl)c1` [Compound I-41, N-(3-(5-chloro-2-(2-methoxy-4-(4-(methylsulfonyl)piperazin-1-yl)phenylamino)pyrimidin-4-ylamino)phenyl)acrylamide], in test [1], the “Ratio WT/mutant (H1975)” value is over 1. Further, the GI50 is 100 to 500 nM in test [2] (NCI-H1975, H1975 cells, 72 hr); over 1000 nM in the test with A431 cells (WT EGFR) (setting [4]); 10 to 100 nM in test [3] (HCC827 cells, 72 hr).
`C=CC(=O)Nc1cccc(Oc2nc(Nc3ccc(N4CCOCC4)cc3OC(F)F)ncc2C(F)(F)F)c1` [Compound I-13, N-(3-(2-(2-(difluoromethoxy)-4-morpholinophenylamino)-5-(trifluoromethyl)pyrimidin-4-yloxy)phenyl)acrylamide]: the GI50 in test [2] (NCI-H1975, H1975 cells, 72 hr) was 100 to 500 nM; in the test with A431 cells (WT EGFR) (setting [4]), over 1000 nM; in test [3] (HCC827 cells, 72 hr) it was 10 to 100 nM.
With `C=CC(=O)Nc1cccc(Oc2nc(Nc3ccc(N4CCOCC4)cc3OC)ncc2C(F)(F)F)c1` [Compound I-1, N-(3-(2-(2-methoxy-4-morpholinophenylamino)-5-(trifluoromethyl)pyrimidin-4-yloxy)phenyl)acrylamide], the “Ratio WT/mutant (H1975)” value in test [1] is over 50. In addition, the concentration for 50% growth inhibition (GI50) in test [2] (NCI-H1975, H1975 cells, 72 hr) was 10 to 100 nM; in the test with A431 cells (WT EGFR) (setting [4]), over 1000 nM; in test [3] (HCC827 cells, 72 hr), 10 to 100 nM.
On to `C=CC(=O)Nc1cccc(Oc2nc(Nc3ccc(N4CCOCC4)cc3OC(F)F)ncc2Cl)c1` [Compound I-36, N-(3-(5-chloro-2-(2-(difluoromethoxy)-4-morpholinophenylamino)pyrimidin-4-yloxy)phenyl)acrylamide], for which the GI50 in test [2] (NCI-H1975, H1975 cells, 72 hr) is 100 to 500 nM; in the test with A431 cells (WT EGFR) (setting [4]), over 1000 nM; in test [3] (HCC827 cells, 72 hr), 10 to 100 nM.
For `C=CC(=O)Nc1cccc(Oc2nc(Nc3ccc(N4CCN(C(=O)CC(C)(C)C)CC4)cc3OC)ncc2Cl)c1` [Compound I-23, N-(3-(5-chloro-2-(4-(4-(3,3-dimethylbutanoyl)piperazin-1-yl)-2-methoxyphenylamino)pyrimidin-4-yloxy)phenyl)acrylamide] the same measures were 500 to 1000 nM, over 1000 nM and 100 to 500 nM.
Regarding `C=CC(=O)Nc1cccc(Oc2nc(Nc3ccc(N4CCN(S(N)(=O)=O)CC4)cc3OC)ncc2C(F)(F)F)c1` [Compound I-27, N-(3-(2-(2-methoxy-4-(4-sulfamoylpiperazin-1-yl)phenylamino)-5-(trifluoromethyl)pyrimidin-4-yloxy)phenyl)acrylamide], the GI50 is 100 to 500 nM in test [2] (NCI-H1975, H1975 cells, 72 hr); over 1000 nM with A431 cells (WT EGFR) (setting [4]); 10 to 100 nM in test [3] (HCC827 cells, 72 hr).
For `C=CC(=O)Nc1cccc(Oc2nc(Nc3ccc(N4CCN(C(=O)OC(C)(C)C)CC4)cc3OCC)ncc2Cl)c1` [Compound I-18, tert-butyl 4-(4-(4-(3-acrylamidophenoxy)-5-chloropyrimidin-2-ylamino)-3-ethoxyphenyl)piperazine-1-carboxylate], the GI50 in test [2] (NCI-H1975, H1975 cells, 72 hr) is 500 to 1000 nM; in the test with A431 cells (WT EGFR) (setting [4]), over 1000 nM; in test [3] (HCC827 cells, 72 hr) it was 100 to 500 nM.
For the compound `C=CC(=O)Nc1cccc(Oc2nc(Nc3ccc(N4CCN(C(=O)CO)CC4)cc3OC)ncc2Cl)c1` [Compound I-3, N-(3-(5-chloro-2-(4-(4-(2-hydroxyacetyl)piperazin-1-yl)-2-methoxyphenylamino)pyrimidin-4-yloxy)phenyl)acrylamide], in test [1], the “Ratio WT/mutant (H1975)” value is reported as over 5. The concentration for 50% growth inhibition (GI50) was 100 to 500 nM in test [2] (NCI-H1975, H1975 cells, 72 hr); over 1000 nM in the test on A431 cells (WT EGFR) (setting [4]); 10 to 100 nM in test [3] (HCC827 cells, 72 hr).
For the compound `C=CC(=O)Nc1cccc(Oc2nc(Nc3ccc(N4CCOCC4)cc3OC)ncc2Cl)c1` [Compound I-5, N-(3-(5-chloro-2-(2-methoxy-4-morpholinophenylamino)pyrimidin-4-yloxy)phenyl)acrylamide], the “Ratio WT/mutant (H1975)” value in test [1] was over 30. Besides, the GI50 in test [2] (NCI-H1975, H1975 cells, 72 hr) is 100 to 500 nM; in the test on A431 cells (WT EGFR) (setting [4]), over 1000 nM; in test [3] (HCC827 cells, 72 hr), 10 to 100 nM.
For the compound `C=CC(=O)Nc1cccc(Nc2nc(Nc3ccc(N4CCN(C(=O)CC)CC4)cc3OC)ncc2C(F)(F)F)c1` [Compound I-35, N-(3-(2-(2-methoxy-4-(4-propionylpiperazin-1-yl)phenylamino)-5-(trifluoromethyl)pyrimidin-4-ylamino)phenyl)acrylamide], the GI50 in test [2] (NCI-H1975, H1975 cells, 72 hr) was 10 to 100 nM; with A431 cells (WT EGFR) (setting [4]), over 1000 nM; in test [3] (HCC827 cells, 72 hr) it was 10 to 100 nM.
On to `C=CC(=O)Nc1cccc(Oc2nc(Nc3ccc(N4CCCOCC4)cc3OC)ncc2Cl)c1` [Compound I-37, N-(3-(5-chloro-2-(2-methoxy-4-(1,4-oxazepan-4-yl)phenylamino)pyrimidin-4-yloxy)phenyl)acrylamide], for which the GI50 in test [2] (NCI-H1975, H1975 cells, 72 hr) is 500 to 1000 nM; in the test on A431 cells (WT EGFR) (setting [4]), over 1000 nM; in test [3] (HCC827 cells, 72 hr) it was 100 to 500 nM.
Consider `C=CC(=O)Nc1cccc(Oc2nc(Nc3ccc(N4CCN(C(=O)OC)CC4)cc3OC)ncc2C(F)(F)F)c1` [Compound I-20, methyl 4-(4-(4-(3-acrylamidophenoxy)-5-(trifluoromethyl)pyrimidin-2-ylamino)-3-methoxyphenyl)piperazine-1-carboxylate], for which the GI50 is 100 to 500 nM in test [2] (NCI-H1975, 72 h); over 1000 nM in the test on A431 cells (WT EGFR) (A-431, 72 h, read-out: WT EGFR GI50); 100 to 500 nM in test [3] (HCC827, 72 h).
Turning to `C=CC(=O)Nc1cccc(Nc2nc(Nc3ccc(N4CCN(C(=O)OC)CC4)cc3OC)ncc2C(F)(F)F)c1` [Compound I-29, methyl 4-(4-(4-(3-acrylamidophenylamino)-5-(trifluoromethyl)pyrimidin-2-ylamino)-3-methoxyphenyl)piperazine-1-carboxylate], the GI50 was 10 to 100 nM in test [2] (NCI-H1975, H1975 cells, 72 hr); over 1000 nM in the test with A431 cells (WT EGFR) (setting [4]); 10 to 100 nM in test [3] (HCC827 cells, 72 hr).
`C=CC(=O)Nc1cccc(Nc2nc(Nc3ccc(N4CCCOCC4)cc3OC)ncc2C(F)(F)F)c1` [Compound I-38, N-(3-(2-(2-methoxy-4-(1,4-oxazepan-4-yl)phenylamino)-5-(trifluoromethyl)pyrimidin-4-ylamino)phenyl)acrylamide]: the GI50 was over 1000 nM in test [2] (NCI-H1975, H1975 cells, 72 hr); over 1000 nM with A431 cells (WT EGFR) (setting [4]); 500 to 1000 nM in test [3] (HCC827 cells, 72 hr).
For `C=CC(=O)Nc1cccc(Oc2nc(Nc3ccc(N4CCCN(C(=O)OC(C)(C)C)CC4)cc3OC)ncc2C(F)(F)F)c1` [Compound I-39, tert-butyl 4-(4-(4-(3-acrylamidophenoxy)-5-(trifluoromethyl)pyrimidin-2-ylamino)-3-methoxyphenyl)-1,4-diazepane-1-carboxylate], the GI50 in test [2] (NCI-H1975, H1975 cells, 72 hr) is over 1000 nM; in the test on A431 cells (WT EGFR) (setting [4]) it was over 1000 nM; in test [3] (HCC827 cells, 72 hr), over 1000 nM.
With `C=CC(=O)Nc1cccc(Nc2nc(Nc3ccc(N4CCN(C(=O)OC(C)(C)C)[C@H](C(=O)OC)C4)cc3OC)ncc2C(F)(F)F)c1` [Compound I-50, (S)-1-tert-butyl 2-methyl 4-(4-(4-(3-acrylamidophenylamino)-5-(trifluoromethyl)pyrimidin-2-ylamino)-3-methoxyphenyl)piperazine-1,2-dicarboxylate], the GI50 is 100 to 500 nM in test [2] (NCI-H1975, H1975 cells, 72 hr); over 1000 nM in the test with A431 cells (WT EGFR) (setting [4]); 10 to 100 nM in test [3] (HCC827 cells, 72 hr).
As to `CCOc1cc2ncc(C#N)c(Nc3ccc(OCc4ccccn4)c(Cl)c3)c2cc1NC(=O)/C=C/CN(C)C` [HKI-272, reference compound], in the test on A431 cells (WT EGFR) (A-431, read-out: Comparative GI50 Values, A431), the 50% growth inhibitory concentration (GI50) came out at 4 nM.
Regarding `C=CC(=O)Nc1cccc(Nc2nc(Nc3ccc(N4CCCN(C(=O)C(F)(F)F)CC4)cc3OC)ncc2C(F)(F)F)c1` [Compound I-19, N-(3-(2-(2-methoxy-4-(4-(2,2,2-trifluoroacetyl)-1,4-diazepan-1-yl)phenylamino)-5-(trifluoromethyl)pyrimidin-4-ylamino)phenyl)acrylamide], the GI50 in test [2] (NCI-H1975, H1975 cells, 72 hr) is 100 to 500 nM; in the test with A431 cells (WT EGFR) (setting [4]), over 1000 nM; in test [3] (HCC827 cells, 72 hr), 100 to 500 nM.
Take `C=CC(=O)Nc1cccc(Oc2nc(Nc3ccc(N4CCN(C(C)=O)CC4)cc3OC)ncc2Cl)c1` [Compound I-9, N-(3-(2-(4-(4-acetylpiperazin-1-yl)-2-methoxyphenylamino)-5-chloropyrimidin-4-yloxy)phenyl)acrylamide]: the GI50 in test [2] (NCI-H1975, H1975 cells, 72 hr) was 100 to 500 nM; with A431 cells (WT EGFR) (setting [4]), over 1000 nM; in test [3] (HCC827 cells, 72 hr), 10 to 100 nM.
Turning to `C=CC(=O)Nc1cccc(Nc2nc(Nc3ccc(N4CCN(C(=O)NC)CC4)cc3OC)ncc2C(F)(F)F)c1` [Compound I-28, 4-(4-(4-(3-acrylamidophenylamino)-5-(trifluoromethyl)pyrimidin-2-ylamino)-3-methoxyphenyl)-N-methylpiperazine-1-carboxamide], the GI50 in test [2] (NCI-H1975, H1975 cells, 72 hr) is 500 to 1000 nM; with A431 cells (WT EGFR) (setting [4]), over 1000 nM; in test [3] (HCC827 cells, 72 hr), 10 to 100 nM.
